Experimental data as given in US20040086901A1, “Database for analyzing gene function and method of analyzing gene function by dspa” (priority 2000, published 2004).

Experiments:
Assay type in all cases: cell-based, mouse
[1] = system: NIH3T3 cells overexpressing CP-antisense; test: MTT cell viability, CP-antisense cells vs parental line; details: 3 to 4 days
Procedure, shortened: (§1)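 Stable NIH3T3 transfectants (cDNA in pRc-CMV-type vector, G-418-selected, high expressers picked by Western blot) and parental cells were seeded at 1×10^5 cells/ml into twofold serial drug dilutions and grown 3–4 days. MTT formazan was read at 574/655 nm, and log ratios of IC40 values were derived.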

[2] = system: NIH3T3 cells overexpressing HNF3b; test: MTT cell viability, HNF3b overexpressing cells vs parental line; details: HNF3b high-expressing cells / parental cell line, 3 to 4 days
Procedure, shortened: (§2)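 NIH3T3 high expressers vs parental; 2-fold serial dilution of drugs (DMSO stocks), 9 points; 10% CS-DMEM; 3–4 d culture; MTT 4 h 37 °C, stop with 0.04N HCl/isopropanol; A574/655. Readout is log(IC40 ratio).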

[3] = system: NIH3T3 cells overexpressing PDGF-R-Del; test: MTT cell viability, PDGF-R-Del overexpressing cells vs parental line; details: PDGF-R-Del high-expressing cells / parental cell line, 3 to 4 days
Procedure, shortened: as §1

[4] = system: NIH3T3 cells overexpressing Gluco-corticoid-R; test: MTT cell viability, Gluco-corticoid-R overexpressing cells vs parental line; details: Gluco-corticoid-R high-expressing cells / parental cell line, 3 to 4 days
Procedure, shortened: as §2

[5] = system: NIH3T3 cells overexpressing erbB2; test: MTT cell viability, erbB2 overexpressing cells vs parental line; details: erbB2 high-expressing cells / parental cell line, 3 to 4 days
Procedure, shortened: as §1

[6] = system: NIH3T3 cells overexpressing Cip-1; test: MTT cell viability, Cip-1 overexpressing cells vs parental line; details: Cip-1 high-expressing cells / parental cell line, 3 to 4 days
Procedure, shortened: as §2

[7] = system: NIH3T3 cells overexpressing p33/ING1; test: MTT cell viability, p33/ING1 overexpressing cells vs parental line; details: p33/ING1 high-expressing cells / parental cell line, 3 to 4 days
Procedure, shortened: as §1

[8] = system: NIH3T3 cells overexpressing PKCepsilon-KN; test: MTT cell viability, PKCepsilon-KN overexpressing cells vs parental line; details: 3 to 4 days
Procedure, shortened: as §2

[9] = system: NIH3T3 cells overexpressing HNF4; test: MTT cell viability, HNF4 overexpressing cells vs parental line; details: HNF4 high-expressing cells / parental cell line, 3 to 4 days
Procedure, shortened: as §2

[10] = system: NIH3T3 cells, TPA (PKC downreg); test: MTT cell viability, TPA (PKC downreg) cells vs parental line; details: 3 to 4 days
[11] = system: NIH3T3 cells overexpressing caspase-3; test: MTT cell viability, caspase-3 overexpressing cells vs parental line; details: caspase-3 high-expressing cells / parental cell line, 3 to 4 days
Procedure, shortened: as §2

[12] = system: NIH3T3 cells overexpressing DAN; test: MTT cell viability, DAN overexpressing cells vs parental line; details: DAN high-expressing cells / parental cell line, 3 to 4 days
Procedure, shortened: as §1

[13] = system: NIH3T3 cells overexpressing HSP4O; test: MTT cell viability, HSP4O overexpressing cells vs parental line; details: HSP4O high-expressing cells / parental cell line, 3 to 4 days
Procedure, shortened: as §1

[14] = system: NIH3T3 cells overexpressing Ha-ras; test: MTT cell viability, drug sensitivity of Ha-ras overexpressing cells vs parental line; details: Ha-ras high-expressing cells / parental cell line, 3 to 4 days
Procedure, shortened: as §2

[15] = system: NIH3T3 cells overexpressing HSP9O; test: MTT cell viability, HSP9O overexpressing cells vs parental line; details: HSP9O high-expressing cells / parental cell line, 3 to 4 days
Procedure, shortened: as §1

[16] = system: NIH3T3 cells overexpressing p16/INK4A; test: MTT cell viability, p16/INK4A overexpressing cells vs parental line; details: p16/INK4A high-expressing cells / parental cell line, 3 to 4 days
Procedure, shortened: as §1

[17] = system: NIH3T3 cells overexpressing Bax; test: MTT cell viability, Bax overexpressing cells vs parental line; details: 3 to 4 days
Procedure, shortened: as §2

[18] = system: NIH3T3 cells overexpressing p38-DN; test: MTT cell viability, p38-DN overexpressing cells vs parental line; details: p38-DN high-expressing cells / parental cell line, 3 to 4 days
Procedure, shortened: as §2

[19] = system: NIH3T3 cells overexpressing coup; test: MTT cell viability, coup overexpressing cells vs parental line; details: coup high-expressing cells / parental cell line, 3 to 4 days
Procedure, shortened: as §1

[20] = PKCepsilon-KN (first of two lines) high-expressing cells / parental cell line
[21] = PKCepsilon-KN (second of two lines) high-expressing cells / parental cell line
[22] = Bax (first of two Bax lines) high-expressing cells / parental cell line
[23] = Bax (second of two Bax lines) high-expressing cells / parental cell line

| Substance | logarithmic value of ratio of IC40 values [1] | logarithmic value of ratio of IC40 values [2] | logarithmic value of ratio of IC40 values [3] | logarithmic value of ratio of IC40 values [4] | logarithmic value of ratio of IC40 values [5] | logarithmic value of ratio of IC40 values [6] | logarithmic value of ratio of IC40 values [7] | logarithmic value of ratio of IC40 values [8, 20] | logarithmic value of ratio of IC40 values [8, 21] | logarithmic value of ratio of IC40 values [9] | logarithmic value of ratio of IC40 values [10] | logarithmic value of ratio of IC40 values [11] | logarithmic value of ratio of IC40 values [12] | logarithmic value of ratio of IC40 values [13] | logarithmic value of ratio of IC40 values [14] | logarithmic value of ratio of IC40 values [15] | logarithmic value of ratio of IC40 values [16] | logarithmic value of ratio of IC40 values [17, 22] | logarithmic value of ratio of IC40 values [17, 23] | logarithmic value of ratio of IC40 values [18] | also measured |
| --- | --- | --- | --- | --- | --- | --- | --- | --- | --- | --- | --- | --- | --- | --- | --- | --- | --- | --- | --- | --- | --- |
| ICE inhibitor-III [ICEin-3] | −0.19 | −0.09 | 0.00 | 0.00 | 0.18 | 0.08 | −0.15 | −0.21 | 0.33 | 0.00 | −0.09 | 0.13 | 0.00 | 0.11 | 0.32 | 0.22 | 0.15 | −0.12 | 0.00 | −0.11 | logarithmic value of ratio of IC40 values [19]: −0.11 |
| sodium vanadate | 0.04 | 0.22 | 0.00 | 0.03 | −0.40 | 0.00 | −0.30 | 0.09 | 0.18 | −0.03 | −0.03 | 0.14 | 0.30 | −0.03 | −0.33 | 0.02 | 0.11 | 0.00 | 0.32 | −0.04 | logarithmic value of ratio of IC40 values [19]: −0.10 |
